Paper PMC10408569, “Recruitment of hexahydroquinoline as anticancer scaffold targeting inhibition of wild and mutants EGFR (EGFR^WT, EGFR^T790M, and EGFR^L858R)” (Journal of Enzyme Inhibition and Medicinal Chemistry, 2023)

Experiments:
LOX IMVI = assay: NCI-60 anticancer screening (SRB); type: cell-based; conditions: Homo sapiens, melanoma, one dose 10 μM, read-out: Growth Inhibition Percentage (GI %)
HS 578T = assay: NCI-60 anticancer screening (SRB); type: cell-based; conditions: Homo sapiens; HS 578T, breast cancer; one dose 10 μM; read-out: Growth Inhibition Percentage (GI %)
U251 = assay: NCI-60 anticancer screening (SRB); type: cell-based; conditions: Homo sapiens, U-251; U251, CNS cancer; one dose 10 μM; read-out: Growth Inhibition Percentage (GI %)
UO-31 = assay: NCI-60 anticancer screening (SRB); type: cell-based; conditions: Homo sapiens; UO-31, renal cancer; one dose 10 μM; read-out: Growth Inhibition Percentage (GI %)
SF-268 = assay: NCI-60 anticancer screening (SRB); type: cell-based; conditions: Homo sapiens; SF-268, CNS cancer; one dose 10 μM; read-out: Growth Inhibition Percentage (GI %)
EKVX = assay: NCI-60 anticancer screening (SRB); type: cell-based; conditions: Homo sapiens, NSC lung cancer, one dose 10 μM, read-out: Growth Inhibition Percentage (GI %)
SK-MEL-28 = assay: NCI-60 anticancer screening (SRB); type: cell-based; conditions: Homo sapiens; SK-MEL-28, melanoma; one dose 10 μM; read-out: Growth Inhibition Percentage (GI %)
CCRF-CEM = assay: NCI-60 anticancer screening (SRB); type: cell-based; conditions: Homo sapiens, leukemia, one dose 10 μM, read-out: Growth Inhibition Percentage (GI %)
MALME-3M = assay: NCI-60 anticancer screening (SRB); type: cell-based; conditions: Homo sapiens, melanoma, one dose 10 μM, read-out: Growth Inhibition Percentage (GI %)
SNB-75 = assay: NCI-60 anticancer screening (SRB); type: cell-based; conditions: Homo sapiens; SNB-75, CNS cancer; one dose 10 μM; read-out: Growth Inhibition Percentage (GI %)
OVCAR-4 = assay: NCI-60 anticancer screening (SRB); type: cell-based; conditions: Homo sapiens; OVCAR-4, ovarian cancer; one dose 10 μM; read-out: Growth Inhibition Percentage (GI %)
OVCAR-8 = assay: NCI-60 anticancer screening (SRB); type: cell-based; conditions: Homo sapiens; OVCAR-8, ovarian cancer; one dose 10 μM; read-out: Growth Inhibition Percentage (GI %)
M14 = assay: NCI-60 anticancer screening (SRB); type: cell-based; conditions: Homo sapiens; M14, melanoma; one dose 10 μM; read-out: Growth Inhibition Percentage (GI %)
HOP-92 = assay: NCI-60 anticancer screening (SRB); type: cell-based; conditions: Homo sapiens; HOP-92, NSC lung cancer; one dose 10 μM; read-out: Growth Inhibition Percentage (GI %)
HL-60(TB) = assay: NCI-60 anticancer screening (SRB); type: cell-based; conditions: Homo sapiens, leukemia, one dose 10 μM, read-out: Growth Inhibition Percentage (GI %)
COLO 205 = assay: NCI-60 anticancer screening (SRB); type: cell-based; conditions: Homo sapiens; COLO 205, colon cancer; one dose 10 μM; read-out: Growth Inhibition Percentage (GI %)
786-0 = assay: NCI-60 anticancer screening (SRB); type: cell-based; conditions: Homo sapiens; 786-0, renal cancer; one dose 10 μM; read-out: Growth Inhibition Percentage (GI %)
NCI-H226 = assay: NCI-60 anticancer screening (SRB); type: cell-based; conditions: Homo sapiens; NCI-H226, NSC lung cancer; one dose 10 μM; read-out: Growth Inhibition Percentage (GI %)
MCF7 = assay: NCI-60 anticancer screening (SRB); type: cell-based; conditions: Homo sapiens; MCF7, breast cancer; one dose 10 μM; read-out: Growth Inhibition Percentage (GI %)
NCI-H522 = assay: NCI-60 anticancer screening (SRB); type: cell-based; conditions: Homo sapiens; NCI-H522, NSC lung cancer; one dose 10 μM; read-out: Growth Inhibition Percentage (GI %)
SK-MEL-2 = assay: NCI-60 anticancer screening (SRB); type: cell-based; conditions: Homo sapiens; SK-MEL-2, melanoma; one dose 10 μM; read-out: Growth Inhibition Percentage (GI %)
CAKI-1 = assay: NCI-60 anticancer screening (SRB); type: cell-based; conditions: Homo sapiens; CAKI-1, renal cancer; one dose 10 μM; read-out: Growth Inhibition Percentage (GI %)
SF-295 = assay: NCI-60 anticancer screening (SRB); type: cell-based; conditions: Homo sapiens; SF-295, CNS cancer; one dose 10 μM; read-out: Growth Inhibition Percentage (GI %)
MDA-MB-468 = assay: NCI-60 anticancer screening (SRB); type: cell-based; conditions: Homo sapiens; MDA-MB-468, breast cancer; one dose 10 μM; read-out: Growth Inhibition Percentage (GI %)
OVCAR-3 = assay: NCI-60 anticancer screening (SRB); type: cell-based; conditions: Homo sapiens; OVCAR-3, ovarian cancer; one dose 10 μM; read-out: Growth Inhibition Percentage (GI %)
NCI/ADR-RES = assay: NCI-60 anticancer screening (SRB); type: cell-based; conditions: Homo sapiens, ovarian cancer, one dose 10 μM, read-out: Growth Inhibition Percentage (GI %)
DU-145 = assay: NCI-60 anticancer screening (SRB); type: cell-based; conditions: Homo sapiens; DU-145, prostate cancer; one dose 10 μM; read-out: Growth Inhibition Percentage (GI %)
MOLT-4 = assay: NCI-60 anticancer screening (SRB); type: cell-based; conditions: Homo sapiens; MOLT-4, leukemia; one dose 10 μM; read-out: Growth Inhibition Percentage (GI %)
A498 = assay: NCI-60 anticancer screening (SRB); type: cell-based; conditions: Homo sapiens; A498, renal cancer; one dose 10 μM; read-out: Growth Inhibition Percentage (GI %)
UACC-62 = assay: NCI-60 anticancer screening (SRB); type: cell-based; conditions: Homo sapiens; UACC-62, melanoma; one dose 10 μM; read-out: Growth Inhibition Percentage (GI %)
BT-549 = assay: NCI-60 anticancer screening (SRB); type: cell-based; conditions: Homo sapiens; BT-549, breast cancer; one dose 10 μM; read-out: Growth Inhibition Percentage (GI %)
K-562 = assay: NCI-60 anticancer screening (SRB); type: cell-based; conditions: Homo sapiens, K562; K-562, leukemia; one dose 10 μM; read-out: Growth Inhibition Percentage (GI %)
TK-10 = assay: NCI-60 anticancer screening (SRB); type: cell-based; conditions: Homo sapiens; TK-10, renal cancer; one dose 10 μM; read-out: Growth Inhibition Percentage (GI %)

Compound | inhibition at 10 µM (LOX IMVI) | inhibition at 10 µM (HS 578T) | melting point | inhibition at 10 µM (U251) | inhibition at 10 µM (UO-31) | inhibition at 10 µM (SF-268) | inhibition at 10 µM (EKVX) | inhibition at 10 µM (SK-MEL-28) | inhibition at 10 µM (CCRF-CEM) | inhibition at 10 µM (MALME-3M) | inhibition at 10 µM (SNB-75) | inhibition at 10 µM (OVCAR-4) | inhibition at 10 µM (OVCAR-8) | inhibition at 10 µM (M14) | inhibition at 10 µM (HOP-92) | inhibition at 10 µM (HL-60(TB)) | inhibition at 10 µM (COLO 205) | inhibition at 10 µM (786-0) | inhibition at 10 µM (NCI-H226) | inhibition at 10 µM (MCF7) | other results
CCOC(=O)C1=C(N)N(c2ccc(C)cc2)C2=C(C(=O)CC(C)(C)C2)C1c1ccccc1OC (racemic) [6h, (±)-Ethyl 2-amino-4–(2-methoxyphenyl)-7,7-dimethyl-1–(4-methylphenyl)-5-oxo-1,4,5,6,7,8-hexahydroquinoline-3-carboxylate] | < 10% | < 10% | 181 to 183 °C | < 10% | 21% | < 10% | < 10% | < 10% | < 10% | < 10% | < 10% | < 10% | < 10% | < 10% | < 10% | < 10% | < 10% | < 10% | < 10% | < 10% | inhibition at 10 µM (NCI-H522): < 10%; inhibition at 10 µM (SK-MEL-2): < 10%; inhibition at 10 µM (CAKI-1): < 10%; inhibition at 10 µM (SF-295): < 10%; inhibition at 10 µM (MDA-MB-468): < 10%; inhibition at 10 µM (OVCAR-3): < 10%; inhibition at 10 µM (NCI/ADR-RES): < 10%; inhibition at 10 µM (DU-145): < 10%; inhibition at 10 µM (MOLT-4): < 10%; inhibition at 10 µM (A498): < 10%; inhibition at 10 µM (UACC-62): < 10%; inhibition at 10 µM (BT-549): < 10%; inhibition at 10 µM (K-562): < 10%; inhibition at 10 µM (TK-10): < 10%
CCOC(=O)C1=C(N)N(c2ccc(Cl)cc2)C2=C(C(=O)CC(C)(C)C2)C1c1ccccc1OC (racemic) [6i, (±)-Ethyl 2-amino-1–(4-chlorophenyl)-4–(2-methoxyphenyl)-7,7-dimethyl-5-oxo-1,4,5,6,7,8-hexahydroquinoline-3-carboxylate] | 37% | 32% | 228 to 230 °C | 28% | 43% | 27% | 44% | 36% | 56% | 40% | 18% | 58% | 12% | 49% | 12% | 69% | 50% | < 10% | 30% | 65% | inhibition at 10 µM (NCI-H522): 43%; inhibition at 10 µM (SK-MEL-2): 15%; inhibition at 10 µM (CAKI-1): 12%; inhibition at 10 µM (SF-295): 41%; inhibition at 10 µM (MDA-MB-468): 39%; inhibition at 10 µM (OVCAR-3): 19%; inhibition at 10 µM (NCI/ADR-RES): 40%; inhibition at 10 µM (DU-145): < 10%; inhibition at 10 µM (MOLT-4): 89%; inhibition at 10 µM (A498): < 10%; inhibition at 10 µM (UACC-62): 44%; inhibition at 10 µM (BT-549): 20%; inhibition at 10 µM (K-562): 66%; inhibition at 10 µM (TK-10): < 10%
CCOC(=O)C1=C(N)N(c2ccccc2)C2=C(C(=O)CC(C)(C)C2)C1c1ccc(F)cc1 (racemic) [8a, (±)-Ethyl 2-amino-4–(4-fluorophenyl)-7,7-dimethyl-5-oxo-1-phenyl-1,4,5,6,7,8-hexahydroquinoline-3-carboxylate] | < 10% | < 10% | 215 to 217 °C | < 10% | < 10% | < 10% | < 10% | < 10% | < 10% | < 10% | < 10% | < 10% | < 10% | < 10% | < 10% | < 10% | < 10% | < 10% | < 10% | < 10% | inhibition at 10 µM (NCI-H522): < 10%; inhibition at 10 µM (SK-MEL-2): < 10%; inhibition at 10 µM (CAKI-1): < 10%; inhibition at 10 µM (SF-295): < 10%; inhibition at 10 µM (MDA-MB-468): < 10%; inhibition at 10 µM (OVCAR-3): < 10%; inhibition at 10 µM (NCI/ADR-RES): < 10%; inhibition at 10 µM (DU-145): < 10%; inhibition at 10 µM (MOLT-4): < 10%; inhibition at 10 µM (A498): < 10%; inhibition at 10 µM (UACC-62): < 10%; inhibition at 10 µM (BT-549): < 10%; inhibition at 10 µM (K-562): < 10%; inhibition at 10 µM (TK-10): < 10%
CCOC(=O)C1=C(N)N(c2ccc(Cl)cc2)C2=C(C(=O)CC(C)(C)C2)C1c1ccc(F)cc1 (racemic) [8b, (±)-Ethyl 2-amino-1–(4-chlorophenyl)-4–(4-fluoroyphenyl)-7,7-dimethyl-5-oxo-1,4,5,6,7,8-hexahydroquinoline-3-carboxylate] | 14% | < 10% | 256 to 258 °C | 21% | 30% | < 10% | 25% | < 10% | 26% | < 10% | < 10% | 16% | 13% | 14% | 21% | 32% | 13% | 20% | < 10% | 25% | inhibition at 10 µM (NCI-H522): 40%; inhibition at 10 µM (SK-MEL-2): 20%; inhibition at 10 µM (CAKI-1): 26%; inhibition at 10 µM (SF-295): 12%; inhibition at 10 µM (MDA-MB-468): 17%; inhibition at 10 µM (OVCAR-3): < 10%; inhibition at 10 µM (NCI/ADR-RES): 12%; inhibition at 10 µM (DU-145): < 10%; inhibition at 10 µM (MOLT-4): < 10%; inhibition at 10 µM (A498): < 10%; inhibition at 10 µM (UACC-62): 40%; inhibition at 10 µM (BT-549): 13%; inhibition at 10 µM (K-562): < 10%; inhibition at 10 µM (TK-10): < 10%
